≈ marks a conversion by molar mass, not a printed value. Calls of active or inactive are those of the source. The rule behind the calls is not given here.
Key:
[1] = target: T1, Metabotropic glutamate receptor 5 (Homo sapiens, UniProt P41594); test: Positive allosteric modulation of human mGlu5 expressed in HEK293 cells assessed as glutamate-induced calcium mobilization; format: functional, cell-based; details: read-out: EC50
Target sequence in this assay (P41594 whole entry): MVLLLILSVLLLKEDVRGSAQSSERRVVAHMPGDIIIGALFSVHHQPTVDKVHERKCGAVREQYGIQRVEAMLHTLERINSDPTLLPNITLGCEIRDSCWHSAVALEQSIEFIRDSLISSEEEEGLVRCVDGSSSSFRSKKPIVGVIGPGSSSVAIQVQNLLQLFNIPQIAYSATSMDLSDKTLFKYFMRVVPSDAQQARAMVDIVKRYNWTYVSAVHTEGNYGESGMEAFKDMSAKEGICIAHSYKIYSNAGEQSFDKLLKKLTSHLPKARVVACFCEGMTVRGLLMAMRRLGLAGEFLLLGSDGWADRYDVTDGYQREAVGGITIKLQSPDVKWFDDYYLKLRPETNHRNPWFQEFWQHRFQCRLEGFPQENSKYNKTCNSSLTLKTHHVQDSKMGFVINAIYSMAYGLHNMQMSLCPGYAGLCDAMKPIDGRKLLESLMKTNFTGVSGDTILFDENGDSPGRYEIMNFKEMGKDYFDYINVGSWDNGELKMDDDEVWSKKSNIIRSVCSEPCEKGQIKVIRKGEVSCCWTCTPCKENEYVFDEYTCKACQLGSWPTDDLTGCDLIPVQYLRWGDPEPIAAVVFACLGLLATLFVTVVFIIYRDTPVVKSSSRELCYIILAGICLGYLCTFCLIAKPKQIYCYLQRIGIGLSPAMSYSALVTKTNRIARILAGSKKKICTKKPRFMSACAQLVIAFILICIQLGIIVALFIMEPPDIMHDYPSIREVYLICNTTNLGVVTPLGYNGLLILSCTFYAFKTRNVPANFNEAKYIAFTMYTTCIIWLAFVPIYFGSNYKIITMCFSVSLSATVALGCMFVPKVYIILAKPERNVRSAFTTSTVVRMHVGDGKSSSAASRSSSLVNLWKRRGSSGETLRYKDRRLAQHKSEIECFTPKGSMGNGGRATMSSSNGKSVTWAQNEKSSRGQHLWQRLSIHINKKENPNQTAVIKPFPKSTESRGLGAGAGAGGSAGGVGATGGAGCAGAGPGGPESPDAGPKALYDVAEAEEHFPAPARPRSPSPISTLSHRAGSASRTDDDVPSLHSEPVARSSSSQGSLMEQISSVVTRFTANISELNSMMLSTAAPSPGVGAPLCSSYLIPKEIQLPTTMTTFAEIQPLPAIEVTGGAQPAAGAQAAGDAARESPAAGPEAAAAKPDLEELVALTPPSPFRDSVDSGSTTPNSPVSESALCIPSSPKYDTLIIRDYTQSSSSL

[2] = target: T1, Metabotropic glutamate receptor 5; test: Positive allosteric modulation of human mGlu5 expressed in HEK293 cells assessed as glutamate-induced calcium mobilization relative to glutamate; format: functional, cell-based
Target sequence in this assay (P41594 21-1212 limits assumed): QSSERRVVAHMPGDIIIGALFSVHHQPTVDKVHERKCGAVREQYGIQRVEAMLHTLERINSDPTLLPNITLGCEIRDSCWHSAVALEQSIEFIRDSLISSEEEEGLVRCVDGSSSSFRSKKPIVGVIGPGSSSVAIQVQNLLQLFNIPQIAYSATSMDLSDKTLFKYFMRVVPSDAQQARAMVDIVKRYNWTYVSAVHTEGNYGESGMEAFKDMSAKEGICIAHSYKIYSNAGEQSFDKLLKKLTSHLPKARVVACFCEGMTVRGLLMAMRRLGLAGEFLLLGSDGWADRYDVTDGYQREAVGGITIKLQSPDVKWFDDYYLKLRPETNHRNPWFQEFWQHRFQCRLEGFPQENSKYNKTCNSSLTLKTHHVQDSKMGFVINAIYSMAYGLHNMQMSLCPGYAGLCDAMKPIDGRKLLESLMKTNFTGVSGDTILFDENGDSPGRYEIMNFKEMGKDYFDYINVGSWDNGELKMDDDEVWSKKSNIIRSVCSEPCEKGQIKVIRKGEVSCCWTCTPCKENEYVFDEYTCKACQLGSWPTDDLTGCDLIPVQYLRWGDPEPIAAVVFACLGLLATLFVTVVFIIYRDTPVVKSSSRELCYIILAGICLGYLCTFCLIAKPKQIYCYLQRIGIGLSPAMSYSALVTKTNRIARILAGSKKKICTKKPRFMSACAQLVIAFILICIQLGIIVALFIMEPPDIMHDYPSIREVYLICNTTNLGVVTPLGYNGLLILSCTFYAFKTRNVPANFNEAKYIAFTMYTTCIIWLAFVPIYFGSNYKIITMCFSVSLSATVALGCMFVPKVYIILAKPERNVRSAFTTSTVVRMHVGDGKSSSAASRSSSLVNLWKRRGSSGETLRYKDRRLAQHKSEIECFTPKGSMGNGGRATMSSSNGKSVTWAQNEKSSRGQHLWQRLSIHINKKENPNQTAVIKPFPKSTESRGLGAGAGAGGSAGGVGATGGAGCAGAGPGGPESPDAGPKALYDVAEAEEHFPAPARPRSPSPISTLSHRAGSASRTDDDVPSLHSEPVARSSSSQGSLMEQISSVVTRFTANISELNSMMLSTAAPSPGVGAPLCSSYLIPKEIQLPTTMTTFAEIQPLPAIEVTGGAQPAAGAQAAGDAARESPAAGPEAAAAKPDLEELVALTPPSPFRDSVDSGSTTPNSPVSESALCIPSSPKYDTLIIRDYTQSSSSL

[3] = target: Metabotropic glutamate receptor 3 (Homo sapiens, UniProt Q14832); test: Antagonist activity at human mGlu3 expressed in HEK293 cells assessed as inhibition of glutamate-induced calcium mobilization; format: functional, cell-based
Rattus norvegicus [4] = test: Toxicity in Sprague-Dawley rat assessed as pedaling movements of forepaws at 25 to 600 mg/kg, po; format: organism-based; details: in vivo
[5] = Volume of distribution at steady state in rat at 2.5 mg/kg, iv; format: ADME, organism-based; details: in vivo, read-out: Vdss
[6] = Oral bioavailability in dog at 5 mg/kg; format: ADME, organism-based, Canis lupus familiaris; details: in vivo
[7] = Cmax in dog at 5 mg/kg, po; format: ADME, organism-based, Canis lupus familiaris; parameters: dose 5 mg/kg, route oral; details: in vivo
[8] = Plasma protein binding in human assessed as percentage unbound; format: ADME, cell-free
[9] = Half life in rat at 2.5 mg/kg, iv; format: ADME, organism-based; details: in vivo
[10] = Volume of distribution at steady state in dog at 0.5 mg/kg, iv; format: ADME, organism-based, Canis lupus familiaris; details: in vivo, read-out: Vdss
[11] = Plasma protein binding in rat assessed as percentage unbound; format: ADME, cell-free
[12] = Half life in dog at 0.5 mg/kg, iv; format: ADME, organism-based, Canis lupus familiaris; details: in vivo
[13] = Percentage unbound in rat brain; format: ADME, tissue-based; details: brain tissue
Rattus norvegicus [14] = test: Antipsychotic-like activity in dosed Sprague-Dawley rat assessed as full reversal of amphetamine-induced hyperlocomotion at 100 mg/kg, po; format: functional, organism-based
[15] = Inhibition of Sodium channel (unknown origin); parameters: species or system Homo sapiens
[16] = target: T2, Metabotropic glutamate receptor 4 (Homo sapiens, UniProt Q14833); test: Positive allosteric modulation of human mGlu4 receptor expressed in HEK293 cells assessed as calcium mobilization by fluorescence analysis; format: functional, cell-based
[17] = target: Metabotropic glutamate receptor 2 (Homo sapiens, UniProt Q14416); test: Positive allosteric modulation of human mGlu2 receptor expressed in HEK293 cells assessed as calcium mobilization by fluorescence analysis; format: functional, cell-based
[18] = target: Voltage-gated inwardly rectifying potassium channel KCNH2 (Homo sapiens, UniProt Q12809); test: Inhibition of human ERG
[19] = Inhibition of Calcium channel (unknown origin); parameters: species or system Homo sapiens
[20] = target: T2, Metabotropic glutamate receptor 4; test: Positive allosteric modulation of human mGlu4 receptor expressed in L929sA cells by [35S]-GTPgammaS binding assay; format: functional, cell-based
Rattus norvegicus [21] = test: Toxicity in Sprague-Dawley rat assessed as tremors at 25 to 600 mg/kg, po; format: organism-based; details: in vivo
[22] = target: Metabotropic glutamate receptor 7 (Homo sapiens, UniProt Q14831); test: Positive allosteric modulation of human mGlu7 receptor expressed in HEK293 cells assessed as calcium mobilization by fluorescence analysis; format: functional, cell-based
Cytochrome P450 2C9 = Cytochrome P450 2C9 (Homo sapiens, UniProt P11712); test: Inhibition of CYP2C9 (unknown origin); format: ADME
Cytochrome P450 2D6 = Cytochrome P450 2D6 (Homo sapiens, UniProt P10635); test: Inhibition of CYP2D6 (unknown origin); format: ADME
Rattus norvegicus [23] = test: Antipsychotic-like activity in po dosed Sprague-Dawley rat assessed as reversal of amphetamine-induced hyperlocomotion; format: functional
[24] = target: Platelet-activating factor receptor (Homo sapiens) (UniProt P25105); test: Inhibition of human PAF at 10 uM
[25] = target: Metabotropic glutamate receptor 8 (Homo sapiens, UniProt O00222); test: Positive allosteric modulation of human mGlu8 receptor expressed in HEK293 cells assessed as calcium mobilization by fluorescence analysis; format: functional, cell-based
[26] = AUC (0 to infinity) in dog at 5 mg/kg, po; format: ADME, organism-based, Canis lupus familiaris; parameters: dose 5 mg/kg, time infinity, route oral; details: in vivo
[27] = Plasma clearance in rat at 2.5 mg/kg, iv; format: ADME, organism-based
[28] = AUC (0 to infinity) in rat at 10 mg/kg, po; format: ADME, organism-based; parameters: dose 10 mg/kg, route oral, time infinity; details: in vivo
[29] = target: Metabotropic glutamate receptor 1 (Homo sapiens, UniProt Q13255); test: Positive allosteric modulation of human mGlu1 receptor expressed in HEK293 cells assessed as calcium mobilization by fluorescence analysis; format: functional, cell-based
[30] = Solubility of compound in fed state simulated intestinal fluid; format: ADME; details: simulated gi fluid
Cytochrome P450 1A2 = target: T3, Cytochrome P450 1A2 (Homo sapiens, UniProt P05177); test: Inhibition of CYP1A2 (unknown origin); format: ADME
T3 sequence (P05177 whole entry): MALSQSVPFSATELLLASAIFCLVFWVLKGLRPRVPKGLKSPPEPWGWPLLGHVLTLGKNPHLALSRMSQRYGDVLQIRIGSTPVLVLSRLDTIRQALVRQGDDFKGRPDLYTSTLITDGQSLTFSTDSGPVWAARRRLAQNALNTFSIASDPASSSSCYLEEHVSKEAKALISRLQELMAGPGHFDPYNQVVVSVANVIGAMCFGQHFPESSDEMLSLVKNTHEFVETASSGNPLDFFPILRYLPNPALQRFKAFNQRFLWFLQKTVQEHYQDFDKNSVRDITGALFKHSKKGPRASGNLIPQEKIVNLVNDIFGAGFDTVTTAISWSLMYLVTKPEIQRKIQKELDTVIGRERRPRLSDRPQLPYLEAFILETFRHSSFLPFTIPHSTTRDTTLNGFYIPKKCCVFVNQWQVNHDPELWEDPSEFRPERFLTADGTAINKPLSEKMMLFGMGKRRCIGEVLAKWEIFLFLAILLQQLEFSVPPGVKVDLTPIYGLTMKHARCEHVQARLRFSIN

Cytochrome P450 3A4 = Cytochrome P450 3A4 (Homo sapiens, UniProt P08684); test: Inhibition of CYP3A4 (unknown origin); format: ADME
Rattus norvegicus [31] = test: Toxicity in Sprague-Dawley rat assessed as mortality at 600 mg/kg, po; format: organism-based; details: in vivo
[32] = Oral bioavailability in rat at 10 mg/kg; format: ADME, organism-based; details: in vivo
[33] = target: T2, Metabotropic glutamate receptor 4; test: Positive allosteric modulation of human mGlu4 receptor expressed in L929sA cells assessed as calcium mobilization by fluorescence analysis; format: functional, cell-based
in vivo [34] = details: dog, po, 5 mg/kg
[35] = Plasma clearance in dog at 0.5 mg/kg, iv; format: ADME, organism-based, Canis lupus familiaris
[36] = Cmax in rat at 10 mg/kg, po; format: ADME, organism-based; parameters: dose 10 mg/kg, route oral; details: in vivo
[37] = target: Metabotropic glutamate receptor 6 (Rattus norvegicus, UniProt P35349); test: Positive allosteric modulation of rat mGlu6 receptor expressed in CHO cells by [35S]-GTPgammaS binding assay; format: functional, cell-based
in vivo [38] = details: rat, po, 10 mg/kg
Description: Tmax in rat at 10 mg/kg, po

Rattus norvegicus [39] = test: Procognitive activity in po dosed Sprague-Dawley rat assessed as enhancement of contexual fear conditioning acquistion treated for 30 mins prior to conditioning measured after 24 hrs; format: functional
[40] = target: T2, Metabotropic glutamate receptor 4; test: Positive allosteric modulation of human mGlu4 receptor expressed in HEK293 cells by [35S]-GTPgammaS binding assay; format: functional, cell-based
Rattus norvegicus [41] = test: Toxicity in Sprague-Dawley rat assessed as complusive behavior at 25 to 600 mg/kg, po; format: organism-based; details: in vivo

T2 sequence (Q14833 whole entry): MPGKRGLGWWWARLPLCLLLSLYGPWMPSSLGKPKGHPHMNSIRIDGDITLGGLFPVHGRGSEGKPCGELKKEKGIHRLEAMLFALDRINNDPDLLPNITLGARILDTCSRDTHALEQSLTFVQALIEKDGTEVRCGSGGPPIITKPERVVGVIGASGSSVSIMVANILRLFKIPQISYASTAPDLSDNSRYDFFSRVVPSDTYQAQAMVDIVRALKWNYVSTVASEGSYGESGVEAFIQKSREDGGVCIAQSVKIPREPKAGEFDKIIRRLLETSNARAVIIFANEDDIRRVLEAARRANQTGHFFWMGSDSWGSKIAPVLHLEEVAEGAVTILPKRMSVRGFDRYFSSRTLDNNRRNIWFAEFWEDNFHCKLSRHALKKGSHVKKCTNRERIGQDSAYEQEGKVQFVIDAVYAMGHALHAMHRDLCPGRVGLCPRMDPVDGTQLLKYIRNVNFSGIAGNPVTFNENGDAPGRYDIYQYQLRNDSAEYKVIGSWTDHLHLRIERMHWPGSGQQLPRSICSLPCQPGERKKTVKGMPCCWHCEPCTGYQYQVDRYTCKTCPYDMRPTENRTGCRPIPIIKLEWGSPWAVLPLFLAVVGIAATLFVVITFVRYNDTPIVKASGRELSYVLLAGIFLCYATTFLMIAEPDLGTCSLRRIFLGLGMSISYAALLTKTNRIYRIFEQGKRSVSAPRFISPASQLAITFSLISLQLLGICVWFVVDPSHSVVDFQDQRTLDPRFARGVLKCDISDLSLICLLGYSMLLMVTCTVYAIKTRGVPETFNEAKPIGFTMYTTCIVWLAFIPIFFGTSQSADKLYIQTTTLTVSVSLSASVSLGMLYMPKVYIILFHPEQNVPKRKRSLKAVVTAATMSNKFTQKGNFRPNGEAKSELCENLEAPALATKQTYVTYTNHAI
Sequence of Metabotropic glutamate receptor 3 (Q14832 whole entry): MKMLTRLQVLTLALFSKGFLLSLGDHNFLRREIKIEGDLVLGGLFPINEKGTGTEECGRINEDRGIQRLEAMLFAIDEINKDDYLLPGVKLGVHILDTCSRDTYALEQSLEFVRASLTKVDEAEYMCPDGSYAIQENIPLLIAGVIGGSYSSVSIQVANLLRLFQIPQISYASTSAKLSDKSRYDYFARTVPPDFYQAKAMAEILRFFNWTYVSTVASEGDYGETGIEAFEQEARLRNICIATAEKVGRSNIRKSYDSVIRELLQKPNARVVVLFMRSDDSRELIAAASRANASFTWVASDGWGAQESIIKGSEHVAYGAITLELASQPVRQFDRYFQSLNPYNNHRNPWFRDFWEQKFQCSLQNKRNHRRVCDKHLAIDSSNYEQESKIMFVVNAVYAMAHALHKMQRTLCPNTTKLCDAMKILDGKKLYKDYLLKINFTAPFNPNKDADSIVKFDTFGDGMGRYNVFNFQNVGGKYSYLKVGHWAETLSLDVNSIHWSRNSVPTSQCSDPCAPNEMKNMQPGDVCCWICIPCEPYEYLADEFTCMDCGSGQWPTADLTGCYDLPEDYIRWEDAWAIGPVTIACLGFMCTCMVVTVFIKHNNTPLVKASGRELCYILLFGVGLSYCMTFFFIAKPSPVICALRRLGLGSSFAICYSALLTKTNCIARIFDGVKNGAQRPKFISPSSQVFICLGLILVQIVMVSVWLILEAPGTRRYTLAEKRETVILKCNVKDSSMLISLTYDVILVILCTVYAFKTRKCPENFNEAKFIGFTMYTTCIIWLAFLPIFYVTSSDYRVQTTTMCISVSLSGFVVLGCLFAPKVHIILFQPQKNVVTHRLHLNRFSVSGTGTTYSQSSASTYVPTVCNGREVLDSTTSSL
Sequence of Cytochrome P450 3A4 (P08684 whole entry): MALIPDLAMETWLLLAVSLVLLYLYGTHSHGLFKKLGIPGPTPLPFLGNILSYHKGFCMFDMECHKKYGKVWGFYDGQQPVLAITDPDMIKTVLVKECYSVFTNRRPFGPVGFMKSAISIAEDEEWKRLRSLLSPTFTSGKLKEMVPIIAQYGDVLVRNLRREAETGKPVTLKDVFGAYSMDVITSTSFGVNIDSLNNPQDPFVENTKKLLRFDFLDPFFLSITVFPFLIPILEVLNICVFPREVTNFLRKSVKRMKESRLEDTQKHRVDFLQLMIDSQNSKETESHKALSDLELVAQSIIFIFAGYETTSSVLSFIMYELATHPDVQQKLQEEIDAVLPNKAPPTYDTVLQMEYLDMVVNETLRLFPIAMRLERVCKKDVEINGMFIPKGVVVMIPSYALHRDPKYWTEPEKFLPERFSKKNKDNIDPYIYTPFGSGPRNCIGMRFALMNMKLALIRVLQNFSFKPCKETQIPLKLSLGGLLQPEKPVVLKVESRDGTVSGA
Sequence of Platelet-activating factor receptor (Homo sapiens) (P25105 whole entry): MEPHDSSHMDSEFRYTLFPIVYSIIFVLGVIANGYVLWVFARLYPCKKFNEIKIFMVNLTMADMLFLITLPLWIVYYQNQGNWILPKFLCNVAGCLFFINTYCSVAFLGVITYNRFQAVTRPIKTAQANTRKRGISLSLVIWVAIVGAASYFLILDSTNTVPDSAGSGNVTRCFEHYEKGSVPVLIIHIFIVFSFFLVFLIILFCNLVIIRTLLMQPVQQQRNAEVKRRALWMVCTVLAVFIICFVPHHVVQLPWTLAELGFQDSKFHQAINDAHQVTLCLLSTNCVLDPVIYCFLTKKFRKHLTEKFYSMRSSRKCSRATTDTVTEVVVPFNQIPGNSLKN

Compound `O=C1c2cc(COc3ccccc3)nn2CCN1c1ccccn1` has an EC50 [1] of 760 nM and an Emax [2] of 69%.

Work on `O=C1c2cc(COc3ccccc3)nn2CCN1c1ccc(F)cc1F` yielded an EC50 [1] of 100 nM and an Emax [2] of 101%.

`Cc1ccc(N2CCn3nc(COc4ccccc4)cc3C2=O)cc1` showed an EC50 [1] of 71 nM, an Emax [2] of 65% and an EC50 [3] of 150 nM.

In the case of `Cc1ccc(OCc2cc3n(n2)CCN(c2ccc(F)cc2)C3=O)cc1`, the EC50 [1] is reported as 300 nM and the Emax [2] is reported as 58%.

`O=C1c2cc(COc3ccccc3)nn2CCN1c1ccccc1F` gave an EC50 [1] of 160 nM and an Emax [2] of 86%.

With `O=C1c2cc(COc3ccccc3)nn2CCN1c1ccc(F)cn1` the Activity (Rattus norvegicus [4]) was “Toxic”, the Vd [5] was 1.6 L/kg and the bioavailability [6] was 48%. The Cmax [7] was 519 ng/mL, the Fu [8] was 8.2% and the half-life [9] was 1.6 h. The Vd [10] was 2.6 L/kg, the EC50 [1] was 130 nM and the Fu [11] was 6.8%. For the same compound, the half-life [12] was 2.4 h, the fraction unbound [13] was 0.055 and the Activity (Rattus norvegicus [14]) was “Active”. The IC50 [15] was over 10000 nM, the EC50 [16] was over 10000 nM and the EC50 [17] was over 10000 nM. For the same compound, the IC50 [18] was over 10000 nM, the IC50 [19] was over 10000 nM and the Emax [2] was 72%. For the same compound, the EC50 [20] was over 10000 nM, the Activity (Rattus norvegicus [21]) was “Toxic” and the EC50 [22] was over 10000 nM. For the same compound, the IC50 (Cytochrome P450 2C9) was at least 30000 nM, the IC50 (Cytochrome P450 2D6) was at least 30000 nM and the Activity (Rattus norvegicus [23]) was “Dose-dependent effect”. For the same compound, the inhibition [24] was 57%, the EC50 [25] was over 10000 nM and the AUC(0-inf) [26] was 1540 ng·h/mL. It also gave a clearance [27] of 19 mL/min/kg, an AUC(0-inf) [28] of 6670 ng·h/mL and an EC50 [29] of over 10000 nM. It also gave an EC50 [3] of 6760 nM, a solubility [30] of 13 µg/mL (≈ 38.4 µM) and an IC50 (Cytochrome P450 1A2) of at least 30000 nM. The IC50 (Cytochrome P450 3A4) was at least 30000 nM, the Activity (Rattus norvegicus [31]) was “Toxic” and the bioavailability [32] was 88%. The EC50 [33] was over 10000 nM, the Tmax (in vivo [34]) was 0.7 h and the clearance [35] was 25 mL/min/kg. The Cmax [36] was 730 ng/mL, the EC50 [37] was over 10000 nM and the Tmax (in vivo [38]) was 4 h. For the same compound, the Activity (Rattus norvegicus [39]) was “Dose-dependent effect”, the minimal effective dose (Rattus norvegicus [39]; read-out: MED) was 0.3 mg/kg and the EC50 [40] was over 10000 nM. For the same compound, the Activity (Rattus norvegicus [41]) was “Toxic”.

Compound `COc1ccc(N2CCn3nc(COc4ccccc4)cc3C2=O)cc1` has an EC50 [1] of 110 nM and an Emax [2] of 58%.

`O=C1c2cc(COc3ccccc3)nn2CCN1c1ccc(F)cc1` gave an EC50 [1] of 65 nM, an Emax [2] of 79% and an EC50 [3] of 74 nM.

`O=C1c2cc(COc3cccc(F)c3)nn2CCN1c1ccc(F)cc1` showed an EC50 [1] of 100 nM and an Emax [2] of 70%.

For `Cc1ccc(N2CCn3nc(COc4ccccc4)cc3C2=O)nc1`, the EC50 [1] was 190 nM and the Emax [2] was 76%.

Compound `O=C1c2c(Cl)c(COc3ccccc3)nn2CCN1c1ccc(F)cc1` has an EC50 [1] of over 30000 nM.

`O=C1c2cc(COc3ccc(F)cc3)nn2CCN1c1ccc(F)cc1` showed an EC50 [1] of 100 nM, an Emax [2] of 72% and an EC50 [3] of 34 nM.

With `CC(Oc1ccccc1)c1cc2n(n1)CCN(c1ccc(F)cc1)C2=O` (stereo unspecified) the EC50 [1] was 7760 nM and the Emax [2] was 65%.

Compound `O=C1c2nc(COc3ccccc3)nn2CCN1c1ccc(F)cc1` has an EC50 [1] of 2340 nM and an Emax [2] of 65%.

For `COc1ccc(N2CCn3nc(COc4ccccc4)cc3C2=O)nc1`, the EC50 [1] was 620 nM and the Emax [2] was 74%.

From ChEMBL document CHEMBL3745662, “Preliminary investigation of 6,7-dihydropyrazolo[1,5-a]pyrazin-4-one derivatives as a novel series of mGlu5 receptor positive allosteric modulators with efficacy in preclinical models of schizophrenia” (Bioorg Med Chem Lett, 2016)
